Among the data in PubChem BioAssay (NCI) are GI50 and TGI values, retold here.

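Assay format: 96-well plates, 48-hour exposure. GI50 = concentration required for 50% inhibition of growth. TGI is the concentration that stops growth completely.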

Among the test systems are SF-295 CNS; SR leukemia; UACC-62 melanoma; HL-60(TB) leukemia; NCI-H522 lung; UO-31 renal; COLO 205 colon; SK-MEL-5 melanoma; SNB-19 CNS; 786-0 renal; MDA-N.
Assay in all cases: NCI anticancer screen, dose series, 48 h

As to `COc1ccc(C(=O)/C=C/c2c(Cl)c3c(c(OC)c2Cl)OCC(=O)N3)cc1`, the GI50 was 3.23 µM in the assay on SF-295 CNS; 1.15 µM in the assay with SR leukemia; 1.68 µM in the assay with UACC-62 melanoma; 2.49 µM in the assay on HL-60(TB) leukemia; 1.55 µM with NCI-H522 lung. For the same compound, the TGI was 32.7 µM in the assay on SF-295 CNS; 7.45 µM with SR leukemia; 3.59 µM in the assay with UACC-62 melanoma; 10.6 µM in the assay on HL-60(TB) leukemia; 3.24 µM with NCI-H522 lung.
For the compound `COc1cc2c(cc1OC)C(Cl)C(c1ccc(Cl)c(Cl)c1)=C2Cl` (configuration not stated), the TGI is 24.8 µM in the assay with UO-31 renal; 22 µM with SF-295 CNS; 28 µM in the assay with COLO 205 colon; 19.8 µM with SK-MEL-5 melanoma; 41.8 µM in the assay on SNB-19 CNS; 18.7 µM with UACC-62 melanoma. Further, the TGI with HL-60(TB) leukemia was 9.47 µM; in the assay with NCI-H522 lung, greater than 100 µM.
Take `COc1ccc(-c2c(C#N)c(S)n(NS(=O)(=O)c3ccc(C)cc3)c(=O)c2C#N)cc1`: the TGI in the assay with SF-295 CNS was greater than 100 µM; with 786-0 renal, 31.7 µM; with COLO 205 colon, 44.6 µM; in the assay on SK-MEL-5 melanoma, 30 µM; with MDA-N it was 37.5 µM; in the assay with SNB-19 CNS, greater than 100 µM. The figures for the TGI in the assay on UACC-62 melanoma, in the assay on HL-60(TB) leukemia and with NCI-H522 lung were 31.5 µM, 33.2 µM and 33.7 µM, respectively.
For the compound `CCOC(=O)Cc1cc(OC)c(OC)cc1/C(Cl)=C(\C=O)c1ccc(OC)c(OC)c1`, the TGI is 85.3 µM with UO-31 renal; 29 µM with SF-295 CNS; 50.6 µM in the assay on COLO 205 colon; 35.1 µM in the assay on SK-MEL-5 melanoma; greater than 100 µM with SNB-19 CNS; 37.9 µM in the assay on UACC-62 melanoma. The same compound yielded a TGI with HL-60(TB) leukemia of 40.9 µM.
On to `CC(=O)Oc1c2oc3ccc(Cl)cc3c(=O)c2c(O)c2ccsc12`, for which the TGI in the assay on UO-31 renal, in the assay with SF-295 CNS, with 786-0 renal, in the assay on COLO 205 colon, in the assay with SK-MEL-5 melanoma and in the assay with MDA-N was greater than 100 µM in each case. The TGI with SNB-19 CNS, in the assay on UACC-62 melanoma and with HL-60(TB) leukemia was greater than 100 µM in each case.
As for `COc1ccc(C(=O)Cc2ccc(Br)cc2)cc1OC`, the TGI with UO-31 renal, in the assay with SF-295 CNS, in the assay with SR leukemia, in the assay with SK-MEL-5 melanoma, in the assay with SNB-19 CNS and with UACC-62 melanoma was greater than 100 µM each time. For the same compound, the TGI with HL-60(TB) leukemia and in the assay with NCI-H522 lung was greater than 100 µM in each case.
With `COc1cc2cc[n+]3c(C)c4cc(OC)c(OC)cc4c([O-])c3c2cc1OC`, the TGI is greater than 100 µM in the assay with UO-31 renal; greater than 100 µM in the assay with SF-295 CNS; greater than 100 µM in the assay with SR leukemia; 48.3 µM in the assay with COLO 205 colon; greater than 100 µM with SK-MEL-5 melanoma; greater than 100 µM in the assay with SNB-19 CNS. The values for the TGI in the assay with UACC-62 melanoma, in the assay with HL-60(TB) leukemia and in the assay with NCI-H522 lung were greater than 100 µM, 48.8 µM and 42 µM, respectively.
Turning to `COC(=O)C(CSSC[C@H](N/C(C)=C/C(C)=O)C(=O)OC)N/C(C)=C/C(C)=O` (some centres not stated), the TGI in the assay with UO-31 renal, in the assay on SF-295 CNS, with 786-0 renal, with COLO 205 colon, in the assay with SK-MEL-5 melanoma and in the assay with MDA-N was greater than 100 µM throughout. Besides, the TGI in the assay with SNB-19 CNS was greater than 100 µM; in the assay with UACC-62 melanoma it was greater than 100 µM; in the assay with HL-60(TB) leukemia it was greater than 100 µM; in the assay on NCI-H522 lung it was 30 µM.
Regarding `COc1ccc(C2N(NC(=O)c3ccncc3)C(=O)CS2(=O)=O)cc1F` (configuration not stated), the TGI in the assay with SF-295 CNS, in the assay with SR leukemia, with COLO 205 colon, with SK-MEL-5 melanoma, with SNB-19 CNS and in the assay with HL-60(TB) leukemia was greater than 100 µM throughout. In the assay with NCI-H522 lung, this compound registered a TGI greater than 100 µM.
As to `Cc1cn(Cc2cnnn2CC2OC(n3cc(C)c(=O)[nH]c3=O)CC2O)c(=O)[nH]c1=O` (configuration not stated), the TGI in the assay on UO-31 renal, with SF-295 CNS, with COLO 205 colon, with SK-MEL-5 melanoma, in the assay with MDA-N and in the assay with SNB-19 CNS was greater than 100 µM in each case. In the assay with UACC-62 melanoma, this compound had a TGI greater than 100 µM.
Take `CN1CCN(CCCBr)CC1`: the TGI in the assay with UO-31 renal, in the assay on SF-295 CNS, in the assay on 786-0 renal, in the assay with COLO 205 colon, in the assay with SK-MEL-5 melanoma and in the assay with MDA-N was greater than 100 µM throughout. Besides, the TGI in the assay with SNB-19 CNS, in the assay on UACC-62 melanoma, in the assay with HL-60(TB) leukemia and with NCI-H522 lung was greater than 100 µM each time.
Regarding `CC1(C)[C@H]2CC[C@]1(C)[C@H](OC(=O)NNC(=O)O[C@@H]1C[C@@H]3CC[C@@]1(C)C3(C)C)C2`, the TGI in the assay with UO-31 renal came out at 29.2 µM; with SF-295 CNS, 28.8 µM; with 786-0 renal, 50.3 µM; in the assay on COLO 205 colon, 25.6 µM; in the assay on SK-MEL-5 melanoma, 25.5 µM; in the assay on MDA-N it was 24.8 µM. For the same compound, the TGI was 39.1 µM with SNB-19 CNS, 38.8 µM with UACC-62 melanoma, 62.7 µM in the assay on HL-60(TB) leukemia and 30.7 µM with NCI-H522 lung.
In the case of `O=C1C(=O)c2ccccc2C(O)=C1CCCc1ccc(Oc2ccccc2)cc1`, the TGI in the assay on UO-31 renal was 32.6 µM; with SF-295 CNS, 74.3 µM; in the assay with 786-0 renal, 35.4 µM; with SR leukemia, greater than 100 µM; in the assay with COLO 205 colon, 32.1 µM; in the assay with SK-MEL-5 melanoma, 10.6 µM. Also, the TGI in the assay on SNB-19 CNS is greater than 100 µM; in the assay with UACC-62 melanoma, 15 µM; with HL-60(TB) leukemia, 47.9 µM; in the assay with NCI-H522 lung, 34.2 µM.
Consider `C/C(Nc1ccc(F)cc1)=C1/CCOC1=O`, for which the TGI in the assay on UO-31 renal is greater than 100 µM; with SF-295 CNS, greater than 100 µM; with 786-0 renal it was greater than 100 µM; with SR leukemia it was greater than 100 µM; with COLO 205 colon, 47 µM; with SK-MEL-5 melanoma, greater than 100 µM. Further, the TGI in the assay on SNB-19 CNS, in the assay on UACC-62 melanoma, with HL-60(TB) leukemia and with NCI-H522 lung was greater than 100 µM throughout.
For `CC1CC/C(=C\c2ccc(Cl)cc2)C2OC(N)=C(C#N)C(c3ccc(Cl)cc3)=C12` (configuration not stated), the TGI in the assay on UO-31 renal stood at 24.9 µM; in the assay with 786-0 renal, 26.5 µM; in the assay on COLO 205 colon it was 25.2 µM; with SK-MEL-5 melanoma, 32.1 µM; in the assay with MDA-N, 32.2 µM; in the assay on SNB-19 CNS, 39.6 µM. Also, the values for the TGI in the assay with UACC-62 melanoma and with HL-60(TB) leukemia were 31 µM and 27.4 µM, respectively.
